In US20080193619A1, “Use of Fullerence C60 as an Oil Stabilizer” (UNI PHARMA HOLDING AS, priority 2005, published 2008):

Legend:
[1] = Storage (shelf life) test of salmon oil stabilized with antioxidant, degree of oxidation in fatty acids; parameters: degree of oxidation in fatty acids: unit not given here; settings: for degree of oxidation in fatty acids: fullerene C60 0.001%, rosemary 0.1%
Method: FIG. 2. Shelf life tests for salmon oil stabilized with fullerene or rosemary. The results are given as the change in the oxidation level of fatty acids in the oil. The antioxidants rosemary and fullerene were present at 0.1% and 0.001% by weight, respectively.
Research on storage of salmon oil was carried out at temperatures of 25° C. and 5° C. during the time period from Jun. 11, 2003 to Nov. 10, 2004 (17 months). The quality of the rosemary and fullerene C60 as antioxidants in salmon oil was studied in parallel during the entire duration of the experiment.
The concentration of the two chosen antioxidants used in the experiment were obtained by an addition of 0.1% rosemary (the same concentration used in the products UNIC Omega-3 and AniMega) and 0.001% fullerene C60.
Standard methods of defining the degree of oxidation in fatty acids were used during selected time periods during the storage test. FIG. 2. presents data from a storage temperature of 5° C.

[2] = Organoleptic testing (taste and smell) of stabilized salmon oil; settings: salmon oil with the additive, organoleptic test
Method: With basis in salmon oil as a nutritional supplement, organoleptic characteristics (determination of the quality of the oil by taste and smell) are also of importance. Standardized methods for organoleptic testing were utilized: one drop of salmon oil was placed on the arm and applied in a thin layer by means of a piece of glass. After one minute the quality of the oil could be determined by taste and smell. Five different individuals were tested, once per week, to obtain independent results. […] Both smell and taste was satisfactory at this point in time, and better for fullerene, witch kept well for 600 days, than for rosemary, witch only kept for 300 days.

[3] = In vitro experiments: cytotoxicity and hepatotoxicity; assay type: cell-based; settings: concentrations up to 100 mM in water
cellular membranes = assay: In vitro experiments: cellular respiration and cellular membranes; assay type: cell-based
[4] = In vitro experiments: antioxidant activity
[5] = In vitro experiments: blood fibrillation
[6] = In vivo experiments: toxicity, immunogenicity, allergenicity; settings: dosages up to 25 mg/kg (0.0025% by weight) in aqueous solution
[7] = concentrations up to 100 mM in water

**Q.** With `c12c3c4c5c1c1c6c7c2c2c8c3c3c9c4c4c%10c5c5c1c1c6c6c%11c7c2c2c7c8c3c3c8c9c4c4c9c%10c5c5c1c1c6c6c%11c2c2c7c3c3c8c4c4c9c5c1c1c6c2c3c41` [fullerene C60] as the molecule, how does the “keeping time of stabilized fish oil” value ([1]; fish oil stabilized with the antioxidant) read?
**A.** 600 days

**Q.** And the “degree of oxidation in fatty acids” value ([1]; salmon oil, 5 C., day 0 (11.06))?
**A.** 0.00036

**Q.** What about the “degree of oxidation in fatty acids” value ([1]; salmon oil, 5 C., day 14 (25.06)) of the same molecule?
**A.** 0.00083

**Q.** What about the “degree of oxidation in fatty acids” value ([1]; salmon oil, 5 C., day 81 (8.09)) of the same molecule?
**A.** 0.0010

**Q.** What about the “degree of oxidation in fatty acids” value ([1]; salmon oil, 5 C., day 95 (22.09)) of the same molecule?
**A.** 0.00095

**Q.** And the “degree of oxidation in fatty acids” value ([1]; salmon oil, 5 C., day 109 (6.10))?
**A.** 0.0014

**Q.** What about the “degree of oxidation in fatty acids” value ([1]; salmon oil, 5 C., day 123 (20.10)) of the same molecule?
**A.** 0.0012

**Q.** And the “degree of oxidation in fatty acids” value ([1]; salmon oil, 5 C., day 185 (21.12))?
**A.** 0.0023

**Q.** What about the “degree of oxidation in fatty acids” value ([1]; salmon oil, 5 C., day 200 (05.01)) of the same molecule?
**A.** 0.0027

**Q.** What about the “degree of oxidation in fatty acids” value ([1]; salmon oil, 5 C., day 214 (19.01)) of the same molecule?
**A.** 0.0028

**Q.** What about the “degree of oxidation in fatty acids” value ([1]; salmon oil, 5 C., day 228 (02.02)) of the same molecule?
**A.** 0.0028

**Q.** And the “degree of oxidation in fatty acids” value ([1]; salmon oil, 5 C., day 242 (16.02))?
**A.** 0.0030

**Q.** And the “degree of oxidation in fatty acids” value ([1]; salmon oil, 5 C., day 256 (2.03))?
**A.** 0.0030

**Q.** And the “degree of oxidation in fatty acids” value ([1]; salmon oil, 5 C., day 270 (16.03))?
**A.** 0.0031

**Q.** And the “degree of oxidation in fatty acids” value ([1]; salmon oil, 5 C., day 284 (30.03))?
**A.** 0.0033

**Q.** And the “degree of oxidation in fatty acids” value ([1]; salmon oil, 5 C., day 298 (13.04))?
**A.** 0.0037

**Q.** What about the “degree of oxidation in fatty acids” value ([1]; salmon oil, 5 C., day 312 (27.04)) of the same molecule?
**A.** 0.0039

**Q.** What about the “degree of oxidation in fatty acids” value ([1]; salmon oil, 5 C., day 326 (11.05)) of the same molecule?
**A.** 0.0040

**Q.** And the “degree of oxidation in fatty acids” value ([1]; salmon oil, 5 C., day 340 (25.05))?
**A.** 0.0043

**Q.** And the “degree of oxidation in fatty acids” value ([1]; salmon oil, 5 C., day 354 (8.06))?
**A.** 0.0046

**Q.** What about the “degree of oxidation in fatty acids” value ([1]; salmon oil, 5 C., day 368 (22.06)) of the same molecule?
**A.** 0.0048

**Q.** And the “degree of oxidation in fatty acids” value ([1]; salmon oil, 5 C., day 372 (06.07))?
**A.** 0.0050

**Q.** And the “degree of oxidation in fatty acids” value ([1]; salmon oil, 5 C., day 386 (20.07))?
**A.** 0.0052

**Q.** What about the “degree of oxidation in fatty acids” value ([1]; salmon oil, 5 C., day 414 (15.08)) of the same molecule?
**A.** 0.0054

**Q.** And the “degree of oxidation in fatty acids” value ([1]; salmon oil, 5 C., day 428 (29.08))?
**A.** 0.0055

**Q.** What about the “degree of oxidation in fatty acids” value ([1]; salmon oil, 5 C., day 442 (12.09)) of the same molecule?
**A.** 0.0058

**Q.** What about the “degree of oxidation in fatty acids” value ([1]; salmon oil, 5 C., day 456 (26.09)) of the same molecule?
**A.** 0.0061

**Q.** What about the “degree of oxidation in fatty acids” value ([1]; salmon oil, 5 C., day 470 (10.10)) of the same molecule?
**A.** 0.0065

**Q.** What about the “degree of oxidation in fatty acids” value ([1]; salmon oil, 5 C., day 484 (24.10)) of the same molecule?
**A.** 0.0066

**Q.** What about the “degree of oxidation in fatty acids” value ([1]; salmon oil, 25 C., day 0 (11.06)) of the same molecule?
**A.** 0.00036

**Q.** And the “degree of oxidation in fatty acids” value ([1]; salmon oil, 25 C., day 14 (25.06))?
**A.** 0.00076

**Q.** And the “degree of oxidation in fatty acids” value ([1]; salmon oil, 25 C., day 81 (8.09))?
**A.** 0.0020

**Q.** And the “degree of oxidation in fatty acids” value ([1]; salmon oil, 25 C., day 95 (22.09))?
**A.** 0.0031

**Q.** What about the “degree of oxidation in fatty acids” value ([1]; salmon oil, 25 C., day 109 (6.10)) of the same molecule?
**A.** 0.0090

**Q.** And the “degree of oxidation in fatty acids” value ([1]; salmon oil, 25 C., day 123 (20.10))?
**A.** 0.0015

**Q.** And the “degree of oxidation in fatty acids” value ([1]; salmon oil, 25 C., day 185 (21.12))?
**A.** 0.012

**Q.** What about the “degree of oxidation in fatty acids” value ([1]; salmon oil, 25 C., day 200 (05.01)) of the same molecule?
**A.** 0.015

**Q.** What about the “degree of oxidation in fatty acids” value ([1]; salmon oil, 25 C., day 214 (19.01)) of the same molecule?
**A.** 0.022

**Q.** What about the “degree of oxidation in fatty acids” value ([1]; salmon oil, 25 C., day 228 (02.02)) of the same molecule?
**A.** 0.034

**Q.** And the “degree of oxidation in fatty acids” value ([1]; salmon oil, 25 C., day 242 (16.02))?
**A.** 0.037

**Q.** And the “degree of oxidation in fatty acids” value ([1]; salmon oil, 25 C., day 256 (2.03))?
**A.** 0.038

**Q.** What about the “degree of oxidation in fatty acids” value ([1]; salmon oil, 25 C., day 270 (16.03)) of the same molecule?
**A.** 0.040

**Q.** What about the “degree of oxidation in fatty acids” value ([1]; salmon oil, 25 C., day 284 (30.03)) of the same molecule?
**A.** 0.041

**Q.** And the “degree of oxidation in fatty acids” value ([1]; salmon oil, 25 C., day 298 (13.04))?
**A.** 0.044

**Q.** And the “degree of oxidation in fatty acids” value ([1]; salmon oil, 25 C., day 312 (27.04))?
**A.** 0.047

**Q.** What about the “degree of oxidation in fatty acids” value ([1]; salmon oil, 25 C., day 326 (11.05)) of the same molecule?
**A.** 0.049

**Q.** What about the “degree of oxidation in fatty acids” value ([1]; salmon oil, 25 C., day 340 (25.05)) of the same molecule?
**A.** 0.054

**Q.** And the “degree of oxidation in fatty acids” value ([1]; salmon oil, 25 C., day 354 (8.06))?
**A.** 0.059

**Q.** And the “degree of oxidation in fatty acids” value ([1]; salmon oil, 25 C., day 368 (22.06))?
**A.** 0.063

**Q.** And the “degree of oxidation in fatty acids” value ([1]; salmon oil, 25 C., day 372 (06.07))?
**A.** 0.066

**Q.** What about the “degree of oxidation in fatty acids” value ([1]; salmon oil, 25 C., day 386 (20.07)) of the same molecule?
**A.** 0.068

**Q.** What about the “degree of oxidation in fatty acids” value ([1]; salmon oil, 25 C., day 414 (15.08)) of the same molecule?
**A.** 0.070

**Q.** And the “degree of oxidation in fatty acids” value ([1]; salmon oil, 25 C., day 428 (29.08))?
**A.** 0.072

**Q.** What about the “degree of oxidation in fatty acids” value ([1]; salmon oil, 25 C., day 442 (12.09)) of the same molecule?
**A.** 0.080

**Q.** And the “degree of oxidation in fatty acids” value ([1]; salmon oil, 25 C., day 456 (26.09))?
**A.** 0.085

**Q.** And the “degree of oxidation in fatty acids” value ([1]; salmon oil, 25 C., day 470 (10.10))?
**A.** 0.088

**Q.** What about the “degree of oxidation in fatty acids” value ([1]; salmon oil, 25 C., day 484 (24.10)) of the same molecule?
**A.** 0.089

**Q.** What about the “effectiveness as additive (antioxidant) compared with rosemary” value ([1]; salmon oil, temperature of 5 C) of the same molecule?
**A.** more effective additive than rosemary

**Q.** And the “time the oil kept (smell and taste)” value [2]?
**A.** 600 days

**Q.** What about the cytotoxicity [3] of the same molecule?
**A.** not cytotoxic

**Q.** What about the hepatotoxicity [3] of the same molecule?
**A.** not cytotoxic or hepatoxic

**Q.** And the “inhibition of cellular respiration” value (cellular membranes; [7])?
**A.** does not inhibit cellular respiration

**Q.** And the “inhibition of membrane catalytic activity” value (cellular membranes; [7])?
**A.** does not inhibit cellular respiration or inhibition of membrane catalytic activity

**Q.** And the “stabilization of cellular membranes” value (cellular membranes; stability during unfavourable conditions)?
**A.** stabilizes cellular membranes

**Q.** What about the “antioxidant activity compared with ionol, vitamin E and beta-carotene” value [4] of the same molecule?
**A.** greater than ionol, vitamin E, and beta-carotene

**Q.** And the “effect on blood fibrillation” value [5]?
**A.** no bearing on blood fibrillation

**Q.** What about the allergenicity in vivo [6] of the same molecule?
**A.** not toxic, immunogenic, or an allergen

**Q.** And the immunogenicity in vivo [6]?
**A.** not toxic, immunogenic

**Q.** What about the toxicity in vivo [6] of the same molecule?
**A.** not toxic
